Measured values from patent US12221448B2, “Selective PI3Kδ inhibitor and use thereof” (TARAPEUTICS SCIENCE INC., priority 2018, dated 2025).
Like-named read-outs stand apart in the source and are kept apart here.

Tests used:
Type in all cases: biochemical
PI3Kδ = target: T1, PI3Kδ (Homo sapiens, UniProt O00329); assay: In vitro enzyme activity (ADP-Glo) against PI3Kδ; settings: Table 2; ATP 50 μM, PIP2:PS 50 μM
T1 construct: purchased Invitrogen (US)
Experimental: (§1) In vitro enzyme activity experiments were performed to determine the IC50 values of the compounds against PI3K family type I kinases (PI3Kα, PI3Kβ, PI3Kγ, PI3Kδ) and type II kinases (PIK3C2A, PIK3C2B). Protein kinases PI3Kα, PI3Kγ, PI3Kδ, PIK3C2A, and PIK3C2B were all purchased from Invitrogen (US); protein kinase PI3Kβ was purchased from sigma (US); the three substrates PIP2: PS, PI and PI: PS were purchased from Invitrogen (US).
(§2) Protein kinases diluted to a certain concentration, i.e., PI3Kα 5.4 μL (with a final concentration of 0.16 ng/μL), PI3Kβ 5.4 μL (with a final concentration of 6 ng/μL), PI3Kδ 5.4 μL (with a final concentration of 1 ng/μL), PI3Kγ 5.4 μL (with a final concentration of 5 ng/μL), PIK3C2A 5.4 μL (with a final concentration of 5 ng/μL), and PIK3C2B 5.4 μL (with a final concentration of 10 ng/μL) were respectively reacted with 1 μL of the serially diluted drug compounds for 1 hour at room temperature (final drug concentrations were 10 μM, 1 μM, 0.3 μM, 0.1 μM, 0.03 μM, 0.01 μM, 0.003 μM, and 0.001 μM, respectively).
(§3) To each reaction tube of the above PI3K family type I kinases, 6 μL of a mixture of ATP (Promega, US) and substrate PIP2:PS (final concentrations of ATP in the reaction systems of kinases PI3Kα, and PI3Kβ were 10 μM, and final concentrations of ATP in the reaction systems of kinases PI3Kδ, and PI3Kγ were 50 μM, and final concentrations of the substrate PIP2:PS were all 50 μM) was added, and reacted at 37° C. for 1 hour. The reaction buffer was 50 mM Hepes (pH 7.5) (Promega, USA), 3 mM MgCl2, 1 mM EGTA (Promega, US), 100 mM NaCl, 0.03% CHAPS (Promega, US).
(§4) 5 μL of kinase solution after reaction was placed in a 384-well plate (Corning, US), and 5 μL of ADP-Glo™ reagent (Promega, US) was added thereto and reacted at room temperature for 40 minutes to stop the kinase reaction and exhaust the remaining ATP; 10 μL of kinase detection reagent was added to convert ADP into ATP, and coupled luciferase/luciferin reaction was utilized to detect the newly synthesized ATP. Envision was utilized for readout and plotting, and Graphpad IC50 value was calculated.

PI3Kβ = target: T2, PI3Kβ (Homo sapiens, UniProt P42338); assay: In vitro enzyme activity (ADP-Glo) against PI3Kβ; settings: ATP 10 μM, PIP2:PS 50 μM
T2 construct: purchased sigma (US)
Experimental: as §1, §2, §3, §4

PI3Kγ = target: T3, PI3Kγ (Homo sapiens, UniProt P48736); assay: In vitro enzyme activity (ADP-Glo) against PI3Kγ; settings: ATP 50 μM, PIP2:PS 50 μM
T3 construct: purchased Invitrogen (US)
Experimental: as §1, §2, §3, §4

T1 sequence (O00329 whole entry): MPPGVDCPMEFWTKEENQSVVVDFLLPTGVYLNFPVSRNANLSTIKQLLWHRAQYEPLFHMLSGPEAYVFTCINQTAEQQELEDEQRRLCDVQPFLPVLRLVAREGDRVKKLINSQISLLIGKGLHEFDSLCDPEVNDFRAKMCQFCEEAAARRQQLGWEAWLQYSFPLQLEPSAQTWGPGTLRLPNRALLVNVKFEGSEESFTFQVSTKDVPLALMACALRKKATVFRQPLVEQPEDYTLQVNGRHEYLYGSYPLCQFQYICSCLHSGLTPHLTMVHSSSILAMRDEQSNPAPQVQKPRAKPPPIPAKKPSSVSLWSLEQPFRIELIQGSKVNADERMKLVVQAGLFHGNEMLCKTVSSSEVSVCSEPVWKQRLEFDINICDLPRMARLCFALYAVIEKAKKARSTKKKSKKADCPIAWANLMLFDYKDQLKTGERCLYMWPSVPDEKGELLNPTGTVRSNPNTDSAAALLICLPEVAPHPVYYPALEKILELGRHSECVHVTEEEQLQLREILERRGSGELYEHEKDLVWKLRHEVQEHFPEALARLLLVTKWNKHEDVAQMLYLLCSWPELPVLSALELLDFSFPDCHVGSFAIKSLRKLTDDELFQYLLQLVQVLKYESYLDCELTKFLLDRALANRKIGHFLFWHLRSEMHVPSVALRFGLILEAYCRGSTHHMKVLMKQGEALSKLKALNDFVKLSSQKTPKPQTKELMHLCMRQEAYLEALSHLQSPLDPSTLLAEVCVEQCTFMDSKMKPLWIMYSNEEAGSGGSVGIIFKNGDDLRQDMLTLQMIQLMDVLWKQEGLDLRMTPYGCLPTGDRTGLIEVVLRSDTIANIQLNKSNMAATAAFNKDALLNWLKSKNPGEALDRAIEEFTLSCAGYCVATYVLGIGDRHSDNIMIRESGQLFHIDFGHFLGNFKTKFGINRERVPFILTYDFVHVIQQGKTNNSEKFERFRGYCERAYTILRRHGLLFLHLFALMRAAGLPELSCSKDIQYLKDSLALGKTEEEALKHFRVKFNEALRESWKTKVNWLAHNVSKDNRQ
T1 sequence (P27986 whole entry partner): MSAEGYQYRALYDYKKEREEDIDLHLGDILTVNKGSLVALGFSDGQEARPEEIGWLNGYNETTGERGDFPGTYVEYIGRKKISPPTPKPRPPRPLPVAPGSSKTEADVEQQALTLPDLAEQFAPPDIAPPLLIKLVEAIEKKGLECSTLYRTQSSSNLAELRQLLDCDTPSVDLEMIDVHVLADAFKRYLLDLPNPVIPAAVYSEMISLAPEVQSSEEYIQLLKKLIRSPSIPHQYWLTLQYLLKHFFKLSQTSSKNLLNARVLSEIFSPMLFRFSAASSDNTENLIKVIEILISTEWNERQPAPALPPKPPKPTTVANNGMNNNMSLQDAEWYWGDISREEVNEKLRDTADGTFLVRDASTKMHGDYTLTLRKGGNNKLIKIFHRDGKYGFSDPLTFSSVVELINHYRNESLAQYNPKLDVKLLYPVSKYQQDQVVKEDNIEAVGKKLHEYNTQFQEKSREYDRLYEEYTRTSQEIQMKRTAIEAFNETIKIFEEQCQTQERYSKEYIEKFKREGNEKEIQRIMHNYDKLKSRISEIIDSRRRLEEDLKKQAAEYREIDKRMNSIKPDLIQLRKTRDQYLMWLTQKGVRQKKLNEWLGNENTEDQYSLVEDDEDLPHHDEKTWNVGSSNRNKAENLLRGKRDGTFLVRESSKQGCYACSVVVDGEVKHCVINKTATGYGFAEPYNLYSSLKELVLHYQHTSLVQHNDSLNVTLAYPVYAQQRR
T2 sequence (P42338 whole entry): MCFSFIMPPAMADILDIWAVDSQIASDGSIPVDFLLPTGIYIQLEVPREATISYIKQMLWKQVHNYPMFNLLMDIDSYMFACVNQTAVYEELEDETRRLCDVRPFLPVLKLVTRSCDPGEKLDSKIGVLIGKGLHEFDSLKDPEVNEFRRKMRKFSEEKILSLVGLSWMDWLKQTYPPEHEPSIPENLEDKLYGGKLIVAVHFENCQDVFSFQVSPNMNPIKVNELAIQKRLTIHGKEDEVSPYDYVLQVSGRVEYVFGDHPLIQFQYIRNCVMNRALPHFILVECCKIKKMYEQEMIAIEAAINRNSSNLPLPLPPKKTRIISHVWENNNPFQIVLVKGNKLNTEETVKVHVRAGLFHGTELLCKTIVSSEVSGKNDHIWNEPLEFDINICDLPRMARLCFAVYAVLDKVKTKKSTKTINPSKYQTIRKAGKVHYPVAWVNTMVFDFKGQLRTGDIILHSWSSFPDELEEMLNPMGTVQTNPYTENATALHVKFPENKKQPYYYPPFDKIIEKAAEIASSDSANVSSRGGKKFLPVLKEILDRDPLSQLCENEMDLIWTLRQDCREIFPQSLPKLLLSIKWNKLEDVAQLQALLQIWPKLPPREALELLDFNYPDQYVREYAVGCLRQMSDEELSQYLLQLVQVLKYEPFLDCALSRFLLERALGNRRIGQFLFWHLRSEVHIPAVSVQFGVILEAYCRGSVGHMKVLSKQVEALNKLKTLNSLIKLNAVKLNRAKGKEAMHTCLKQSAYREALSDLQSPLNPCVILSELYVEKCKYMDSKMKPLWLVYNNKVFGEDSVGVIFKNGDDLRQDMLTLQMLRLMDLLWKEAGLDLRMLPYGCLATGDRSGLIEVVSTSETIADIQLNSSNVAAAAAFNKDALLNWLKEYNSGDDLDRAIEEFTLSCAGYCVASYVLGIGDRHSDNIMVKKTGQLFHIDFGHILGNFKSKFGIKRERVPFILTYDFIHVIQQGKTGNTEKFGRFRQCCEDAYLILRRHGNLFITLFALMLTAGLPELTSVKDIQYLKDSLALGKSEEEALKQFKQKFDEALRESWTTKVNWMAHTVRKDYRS
T2 sequence (P27986 whole entry partner): as the sequence (P27986 whole entry partner) above
T3 sequence (P48736 whole entry): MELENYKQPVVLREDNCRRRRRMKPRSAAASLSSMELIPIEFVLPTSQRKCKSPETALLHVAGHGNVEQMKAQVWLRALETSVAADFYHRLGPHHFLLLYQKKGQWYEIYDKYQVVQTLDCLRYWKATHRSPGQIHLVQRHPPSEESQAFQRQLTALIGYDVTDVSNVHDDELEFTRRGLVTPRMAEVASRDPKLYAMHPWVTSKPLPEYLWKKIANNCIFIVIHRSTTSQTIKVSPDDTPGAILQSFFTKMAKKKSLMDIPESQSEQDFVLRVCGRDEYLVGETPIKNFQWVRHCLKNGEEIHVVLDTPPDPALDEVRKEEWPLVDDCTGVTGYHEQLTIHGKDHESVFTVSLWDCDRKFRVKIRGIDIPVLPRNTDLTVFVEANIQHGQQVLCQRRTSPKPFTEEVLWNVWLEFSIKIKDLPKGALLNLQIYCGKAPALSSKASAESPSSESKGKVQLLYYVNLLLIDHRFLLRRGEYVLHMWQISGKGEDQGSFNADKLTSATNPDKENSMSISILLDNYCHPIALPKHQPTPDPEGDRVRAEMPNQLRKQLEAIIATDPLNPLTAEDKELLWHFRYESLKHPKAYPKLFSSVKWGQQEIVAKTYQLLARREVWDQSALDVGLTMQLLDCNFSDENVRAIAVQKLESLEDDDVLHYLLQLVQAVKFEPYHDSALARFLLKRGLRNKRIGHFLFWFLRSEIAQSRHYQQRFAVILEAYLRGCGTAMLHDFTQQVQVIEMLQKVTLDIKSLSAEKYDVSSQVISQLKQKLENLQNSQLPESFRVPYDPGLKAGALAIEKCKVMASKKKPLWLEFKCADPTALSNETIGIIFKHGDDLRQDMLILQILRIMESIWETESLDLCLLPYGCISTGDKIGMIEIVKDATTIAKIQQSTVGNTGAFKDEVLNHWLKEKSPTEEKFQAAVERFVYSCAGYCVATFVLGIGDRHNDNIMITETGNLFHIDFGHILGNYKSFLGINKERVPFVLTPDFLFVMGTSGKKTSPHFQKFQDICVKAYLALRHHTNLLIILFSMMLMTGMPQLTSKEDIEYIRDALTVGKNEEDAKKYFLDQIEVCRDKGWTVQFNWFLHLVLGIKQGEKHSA

SMILES: COc1ccc(-c2nn(Cc3nc4cccc(F)c4c(=O)n3C3CCC3)c3ncnc(N)c23)cc1F [Compound 7, 2-((4-amino-3-(3-fluoro-4-methoxyphenyl)-1H-pyrazolo [3,4-d]pyrimidin-1-yl)methyl)-3-cyclobutyl-5-fluoroquinazolin-4(3H)-one]
- IC50 (PI3Kδ): 0.0999 µM

SMILES: COc1ccc(-c2nn(C(C)c3nc4ccccc4c(=O)n3C3CC3)c3ncnc(N)c23)cc1F (stereo not drawn) [Compound 10, 2-(1-(4-amino-3-(3-fluoro-4-methoxyphenyl)-1H-pyrazolo [3,4-d]pyrimidin-1-yl)ethyl)-3-cyclopropylquinazolin-4(3H)-one]
- IC50 (PI3Kβ; Table 2, read-out: IC50 against PI3Kβ): 0.122 µM
- IC50 (PI3Kγ; Table 2, read-out: IC50 against PI3Kγ): 0.103 µM
- IC50 (PI3Kδ): 0.0064 µM

SMILES: CC(c1nc2cccc(F)c2c(=O)n1C1CCCC1)n1nc(-c2cccc(F)c2)c2c(N)ncnc21 (stereo not drawn) [Compound 12, 2-(1-(4-amino-3-(3-fluorophenyl)-1H-pyrazolo [3,4-d]pyrimidin-1-yl)ethyl)-3-cyclopentyl-5-fluoroquinazolin-4(3H)-one]
- IC50 (PI3Kδ): 0.082 µM

SMILES: CC(C)c1ccc(-c2nn(C(C)c3nc4cccc(F)c4c(=O)n3C3CCCC3)c3ncnc(N)c23)cc1 (stereo not drawn) [Compound 24, 2-(1-(4-amino-3-(4-isopropylphenyl)-1H-pyrazolo [3,4-d]pyrimidin-1-yl)ethyl)-3-cyclopentyl-5-fluoroquinazolin-4(3H)-one]
- IC50 (PI3Kδ): 0.0215 µM

SMILES: Cc1ccc(-c2nn(C(C)c3nc4cccc(F)c4c(=O)n3C3CCCC3)c3ncnc(N)c23)cc1F (stereo not drawn) [Compound 25, 2-(1-(4-amino-3-(3-fluoro-4-methylphenyl)-1H-pyrazolo [3,4-d]pyrimidin-1-yl)ethyl)-3-cyclopentyl-5-fluoroquinazolin-4(3H)-one]
- IC50 (PI3Kδ): 0.0175 µM

SMILES: CC(c1nc2cccc(F)c2c(=O)n1C1CCCC1)n1nc(-c2cnc3ccccc3c2)c2c(N)ncnc21 (stereo not drawn) [Compound 26, 2-(1-(4-amino-3-(quinolin-3-yl)-1H-pyrazolo [3,4-d]pyrimidin-1-yl)ethyl)-3-cyclopentyl-5-fluoroquinazolin-4(3H)-one]
- IC50 (PI3Kδ): 0.0557 µM

SMILES: CC(C)c1ccc(-c2nn(C(C)c3nc4cccc(F)c4c(=O)n3C3CCC3)c3ncnc(N)c23)cc1 (stereo not drawn) [Compound 28, 2-(1-(4-amino-3-(4-isopropylphenyl)-1H-pyrazolo [3,4-d]pyrimidin-1-yl)ethyl)-3-cyclobutyl-5-fluoroquinazolin-4(3H)-one]
- IC50 (PI3Kδ): 0.0833 µM

SMILES: COc1ccc(-c2nn(C(C)c3nc4c(Cl)cccc4c(=O)n3C3CCC3)c3ncnc(N)c23)cc1F (stereo not drawn) [Compound 29, 2-(1-(4-amino-3-(3-fluoro-4-methoxyphenyl)-1H-pyrazolo [3,4-d]pyrimidin-1-yl)ethyl)-8-chloro-3-cyclobutylquinazolin-4(3H)-one]
- IC50 (PI3Kδ): 0.0773 µM

SMILES: COc1ccc(-c2nn(C(C)c3nc4cccc(F)c4c(=O)n3C3CCC3)c3ncnc(N)c23)cc1C (stereo not drawn) [Compound 34, 2-(1-(4-amino-3-(4-methoxy-3-methylphenyl)-1H-pyrazolo [3,4-d]pyrimidin-1-yl)ethyl)-3-cyclobutyl-5-fluoroquinazolin-4(3H)-one]
- IC50 (PI3Kδ): 0.0418 µM

SMILES: CC(c1nc2cccc(F)c2c(=O)n1C1CCC1)n1nc(-c2ccc3c(c2)OCO3)c2c(N)ncnc21 (stereo not drawn) [Compound 35, 2-(1-(4-amino-3-(benzo[d][1,3]dioxol-5-yl)-1H-pyrazolo [3,4-d]pyrimidin-1-yl)ethyl)-3-cyclobutyl-5-fluoroquinazolin-4(3H)-one]
- IC50 (PI3Kδ): 0.0262 µM

SMILES: COc1ccc(-c2nn(C(C)c3nc4cccc(F)c4c(=O)n3C3CCCC3)c3ncnc(N)c23)cc1C (stereo not drawn) [Compound 36, 2-(1-(4-amino-3-(4-methoxy-3-methylphenyl)-1H-pyrazolo [3,4-d]pyrimidin-1-yl)ethyl)-3-cyclopentyl-5-fluoroquinazolin-4(3H)-one]
- IC50 (PI3Kδ): 0.0162 µM

SMILES: COc1ccc(-c2nn(C(C)c3nc4ccccc4c(=O)n3C3CCC3)c3ncnc(N)c23)cc1C (stereo not drawn) [Compound 39, 2-(1-(4-amino-3-(4-methoxy-3-methylphenyl)-1H-pyrazolo [3,4-d]pyrimidin-1-yl)ethyl)-3-cyclobutylquinazolin-4(3H)-one]
- IC50 (PI3Kδ): 0.0235 µM

SMILES: CCC(c1nc2cccc(F)c2c(=O)n1C1CC1)n1nc(-c2ccc(OC)cc2)c2c(N)ncnc21 (stereo not drawn) [Compound 40, 2-(1-(4-amino-3-(4-methoxyphenyl)-1H-pyrazolo [3,4-d]pyrimidin-1-yl)propyl)-3-cyclopropyl-5-fluoroquinazolin-4(3H)-one]
- IC50 (PI3Kδ): 0.0289 µM

SMILES: Cc1ccc(-c2nn(C(C)c3nc4ccc(F)cc4c(=O)n3C3CC3)c3ncnc(N)c23)cc1F (stereo not drawn) [Compound 43, 2-(1-(4-amino-3-(3-fluoro-4-methylphenyl)-1H-pyrazolo [3,4-d]pyrimidin-1-yl)ethyl)-3-cyclopropyl-6-fluoroquinazolin-4-(3H)-one]
- IC50 (PI3Kδ): 0.0273 µM

SMILES: COc1ccc(-c2nn(C(C)c3nc4ccccc4c(=O)n3C3CC3)c3ncnc(N)c23)cc1C (stereo not drawn) [Compound 44, 2-(1-(4-amino-3-(4-methoxy-3-methylphenyl)-1H-pyrazolo [3,4-d]pyrimidin-1-yl)ethyl)-3-cyclopropylquinazolin-4(3H)-one]
- IC50 (PI3Kδ): 0.0398 µM

SMILES: COc1ccc(-c2nn(C(C)c3nc4ccccc4c(=O)n3C3CC3)c3ncnc(N)c23)cc1 (stereo not drawn) [Compound 45, 2-(1-(4-amino-3-(4-methoxyphenyl)-1H-pyrazolo [3,4-d]pyrimidin-1-yl)ethyl)-3-cyclopropylquinazolin-4(3H)-one]
- IC50 (PI3Kδ): 0.0272 µM

SMILES: CC(c1nc2cccc(F)c2c(=O)n1C1CCCC1)n1nc(-c2ccc3c(c2)OCO3)c2c(N)ncnc21 (stereo not drawn) [Compound 46, 2-(1-(4-amino-3-(benzo[d][1,3]dioxol-5-yl)-1H-pyrazolo [3,4-d]pyrimidin-1-yl)ethyl)-3-cyclopentyl-5-fluoroquinazolin-4(3H)-one]
- IC50 (PI3Kδ): 0.0347 µM

SMILES: CCC(c1nc2cccc(F)c2c(=O)n1C1CC1)n1nc(-c2ccc(OC)c(OC)c2)c2c(N)ncnc21 (stereo not drawn) [Compound 47, 2-(1-(4-amino-3-(3,4-dimethoxyphenyl)-1H-pyrazolo [3,4-d]pyrimidin-1-yl)propyl)-3-cyclopropyl-5-fluoroquinazolin-4(3H)-one]
- IC50 (PI3Kδ): 0.0321 µM

SMILES: CCC(c1nc2cccc(F)c2c(=O)n1C1CC1)n1nc(-c2ccc(OC)nc2)c2c(N)ncnc21 (stereo not drawn) [Compound 50, 2-(1-(4-amino-3-(6-methoxypyridin-3-yl)-1H-pyrazolo [3,4-d]pyrimidin-1-yl)propyl)-3-cyclopropyl-5-fluoroquinazolin-4(3H)-one]
- IC50 (PI3Kδ): 0.0485 µM

SMILES: CC(=O)Nc1ccc(-c2nn(C(C)c3nc4cccc(F)c4c(=O)n3C3CCC3)c3ncnc(N)c23)cc1 (stereo not drawn) [Compound 53, N-(4-(4-amino-1-(1-(3-cyclobutyl-5-fluoro-4-oxo-3,4-dihydroquinazolin-2-yl)ethyl)-1H-pyrazolo[3,4-d]pyrimidin-3-yl)phenyl)acetamide]
- IC50 (PI3Kδ): 0.0438 µM

SMILES: COc1ccc(-c2nn(C(C)c3nc4cccc(F)c4c(=O)n3C3CCC3)c3ncnc(N)c23)cn1 (stereo not drawn) [Compound 54, 2-(1-(4-amino-3-(6-methoxypyridin-3-yl)-1H-pyrazolo [3,4-d]pyrimidin-1-yl)ethyl)-3-cyclobutyl-5-fluoroquinazolin-4(3H)-one]
- IC50 (PI3Kδ): 0.039 µM

SMILES: CCC(c1nc2cc(F)c(F)cc2c(=O)n1C1CC1)n1nc(-c2ccc(OC)c(F)c2)c2c(N)ncnc21 (stereo not drawn) [Compound 56, 2-(1-(4-amino-3-(3-fluoro-4-methoxyphenyl)-1H-pyrazolo [3,4-d]pyrimidin-1-yl)propyl)-3-cyclopropyl-6,7-difluoroquinazolin-4(3H)-one]
- IC50 (PI3Kδ): 0.0567 µM

SMILES: CC[C@H](c1nc2cccc(F)c2c(=O)n1C1CC1)n1nc(-c2ccc(OC)c(F)c2)c2c(N)ncnc21 [Compound 82, 2-((R)-1-(4-amino-3-(3-fluoro-4-methoxyphenyl)-1H-pyrazolo [3,4-d]pyrimidin-1-yl)propyl)-3-cyclopropyl-5-fluoroquinazolin-4(3H)-one]
- IC50 (PI3Kδ): 0.0367 µM

SMILES: CC(C)Oc1ccc(-c2nn([C@@H](C)c3oc4ccc(F)cc4c(=O)c3-c3cccc(F)c3)c3ncnc(N)c23)cc1F [TGR1202, reference compound]
- IC50 (PI3Kβ; Table 3, read-out: IC50 PIK3β): > 10 µM
- IC50 (PI3Kγ; Table 3, read-out: IC50 PIK3γ): 0.362 µM
